{"source": "paper PMC3726612", "about": "“Amiodarone Inhibits Apamin-Sensitive Potassium Currents” (PLoS ONE, 2013)", "format_in_all_cases": "cell-based", "key": {"[1]": {"biological_target": "T1, human small conductance Ca^2+-activated K^+ channel, subfamily N, member 2 (SK2) (Homo sapiens, UniProt Q9H2S1)", "T1 construct": "gene KCNN2; transcript variant 1 (NM_021614.2)", "T1 sequence (Q9H2S1 whole entry)": "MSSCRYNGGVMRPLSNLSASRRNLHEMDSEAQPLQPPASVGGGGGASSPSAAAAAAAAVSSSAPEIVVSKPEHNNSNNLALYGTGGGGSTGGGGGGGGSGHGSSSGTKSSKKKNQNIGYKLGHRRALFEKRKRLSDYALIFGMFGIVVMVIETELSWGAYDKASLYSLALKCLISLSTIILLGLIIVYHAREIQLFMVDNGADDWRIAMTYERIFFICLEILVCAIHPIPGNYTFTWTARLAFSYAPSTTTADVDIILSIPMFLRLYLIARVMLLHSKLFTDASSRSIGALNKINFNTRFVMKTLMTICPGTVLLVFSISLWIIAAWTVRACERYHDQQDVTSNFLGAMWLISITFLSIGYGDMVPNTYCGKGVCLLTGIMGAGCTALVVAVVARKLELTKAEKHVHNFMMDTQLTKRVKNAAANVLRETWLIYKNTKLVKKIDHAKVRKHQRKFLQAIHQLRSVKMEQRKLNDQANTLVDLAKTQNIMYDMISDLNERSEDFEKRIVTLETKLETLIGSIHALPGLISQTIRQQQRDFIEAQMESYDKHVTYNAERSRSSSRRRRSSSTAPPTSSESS", "assay": "whole-cell patch clamp, HEK-293 cells expressing SK2; % inhibition at […]", "conditions": "HEK293"}, "[2]": {"biological_target": "T1, human small conductance Ca^2+-activated K^+ channel, subfamily N, member 2 (SK2)", "assay": "whole-cell patch clamp, HEK-293 cells transiently expressing SK2; % inhibition at […]", "conditions": "HEK293"}, "[3]": {"biological_target": "T1, human small conductance Ca^2+-activated K^+ channel, subfamily N, member 2 (SK2)", "assay": "whole-cell patch clamp, HEK-293 cells expressing SK2; % inhibition at […]", "conditions": "HEK293; read-out: % inhibition at 500 nM"}, "[4]": {"biological_target": "T1, human small conductance Ca^2+-activated K^+ channel, subfamily N, member 2 (SK2)", "assay": "whole-cell patch clamp, HEK-293 cells transiently expressing SK2"}}}
{"smiles": "CCS(=O)(=O)N(C)[C@H]1c2cc(C#N)ccc2OC(C)(C)[C@@H]1O", "note": "(racemic) [chromanol 293B]", "values": [{"measurement": "inhibition at 100 µM", "setting": "[1]", "result": "38.2 ± 15", "unit": "%"}]}
{"smiles": "CCCCc1oc2ccccc2c1C(=O)c1cc(I)c(OCCNCC)c(I)c1", "note": "[DEA, desethylamiodarone]", "values": [{"measurement": "inhibition at 20 µM", "setting": "[2]", "result": 79, "unit": "%"}]}
{"smiles": "Cc1cccc(CCN2CCC(C(=O)c3ccc(NS(C)(=O)=O)cc3)CC2)n1", "note": "[E-4031]", "values": [{"measurement": "inhibition at 0.5 µM", "setting": "[3]", "result": "37.6 ± 14.9", "unit": "%"}]}
{"smiles": "CCCCc1oc2ccccc2c1C(=O)c1cc(I)c(OCCN(CC)CC)c(I)c1", "note": "[amiodarone]", "values": [{"measurement": "IC50", "setting": "[4]", "result": "2670 ± 250", "unit": "nM"}]}
